Assay results taken from patent publication US9181264B2, “Fused heteroaryls and their uses” (Hutchison MediPharma Limited, priority 2011, dated 2015).
pIC50: −log10 of the molar value.

Target: T1, PI3Kα kinase (Homo sapiens, UniProt P42336)
T1 construct: purchased Invitrogen PV4788
Assay: PI3Ka Transcreener ADP assay (fluorescence polarization)
Format: biochemical
Settings: 10 μM ATP, 30 μmol/L lipid substrate; read-out: IC50, inhibition of PI3Kα kinase
Description: Fluorescence polarization was used in this assay. The final conditions for kinase assay are 10 μM of ATP, 0.2 ng/μL of PI3Kα kinase, 30 μmol/L of lipid substrate and assay buffer (50 mmol/L of HEPES (pH 7.5), 100 mmol/L of NaCl, 1 mmol/L of EGTA, 3 mmol/L of MgCl2, 1 mmol/L of DTT and 0.03% CHAPS and 2% DMSO).
5 μL of test compounds in 10% DMSO and 10 μL of 0.5 ng/μL PI3K kinase (Invitrogen, PV4788) in assay buffer are put into a 96-well plate (Greiner, Cat. 675076), and then the reaction is started by the addition of 10 μL of 75 μmol/L PIP2, (PS Lipid Substrate Invitrogen, PV5100), and 25 μmol/L ATP mixture. After the mixture is incubated for 60 minutes at room temperature, 25 μL of transcreener Kinase Kit reagent—ADP Detection Mix—(Bellbrook Labs) is added, and the reaction is continued for an additional 1.5 hours. At the end, the plate is read in a Tecan Infinite F500 at excitation of 610 nm and emission of 670 nm.
A standard curve for ADP is obtained in a parallel way by replacing compound and PI3Kα kinase with DMSO and assay buffer, respectively. Different concentration of ADP, 0-10 μM, and ATP, 10-0 μM (ATP+ADP equal to 10 μM) are applied instead of a fixed concentration of ATP in this standard curve assay. Other conditions are the same as described above. The standard curve is plotted using Origin 8.0 software. The inhibition of test compound on ADP production is calculated based on ADP concentration from standard curve. IC50 is obtained using XLfit 2.0 software.

T1 sequence (P42336 whole entry): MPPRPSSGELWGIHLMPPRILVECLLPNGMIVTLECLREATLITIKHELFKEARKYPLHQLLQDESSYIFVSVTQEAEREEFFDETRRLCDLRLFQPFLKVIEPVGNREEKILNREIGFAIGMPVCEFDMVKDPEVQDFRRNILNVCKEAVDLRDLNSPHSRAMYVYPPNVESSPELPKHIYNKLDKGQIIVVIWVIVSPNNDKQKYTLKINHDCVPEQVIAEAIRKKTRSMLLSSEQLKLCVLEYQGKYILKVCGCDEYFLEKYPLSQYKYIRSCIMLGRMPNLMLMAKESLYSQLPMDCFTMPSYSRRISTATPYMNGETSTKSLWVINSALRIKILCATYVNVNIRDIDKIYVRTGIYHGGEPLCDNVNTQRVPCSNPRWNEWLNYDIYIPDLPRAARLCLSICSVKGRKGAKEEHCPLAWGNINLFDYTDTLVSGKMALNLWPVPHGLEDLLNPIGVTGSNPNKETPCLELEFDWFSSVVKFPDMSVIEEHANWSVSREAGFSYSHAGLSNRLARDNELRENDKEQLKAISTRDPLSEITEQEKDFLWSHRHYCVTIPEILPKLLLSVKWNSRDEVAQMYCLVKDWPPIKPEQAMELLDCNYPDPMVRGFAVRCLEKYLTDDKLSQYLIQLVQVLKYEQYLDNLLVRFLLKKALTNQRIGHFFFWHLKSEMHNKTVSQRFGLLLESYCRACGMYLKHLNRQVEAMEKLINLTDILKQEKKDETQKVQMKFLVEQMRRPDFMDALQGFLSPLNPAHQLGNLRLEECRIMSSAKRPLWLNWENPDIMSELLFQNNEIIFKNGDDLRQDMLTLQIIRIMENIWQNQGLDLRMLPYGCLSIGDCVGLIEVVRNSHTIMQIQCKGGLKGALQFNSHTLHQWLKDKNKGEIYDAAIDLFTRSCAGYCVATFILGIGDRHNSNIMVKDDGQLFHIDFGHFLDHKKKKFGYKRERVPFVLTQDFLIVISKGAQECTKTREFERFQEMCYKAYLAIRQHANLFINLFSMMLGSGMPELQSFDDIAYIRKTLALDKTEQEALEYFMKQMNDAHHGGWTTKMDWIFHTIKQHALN
T1 sequence (P27986 whole entry partner): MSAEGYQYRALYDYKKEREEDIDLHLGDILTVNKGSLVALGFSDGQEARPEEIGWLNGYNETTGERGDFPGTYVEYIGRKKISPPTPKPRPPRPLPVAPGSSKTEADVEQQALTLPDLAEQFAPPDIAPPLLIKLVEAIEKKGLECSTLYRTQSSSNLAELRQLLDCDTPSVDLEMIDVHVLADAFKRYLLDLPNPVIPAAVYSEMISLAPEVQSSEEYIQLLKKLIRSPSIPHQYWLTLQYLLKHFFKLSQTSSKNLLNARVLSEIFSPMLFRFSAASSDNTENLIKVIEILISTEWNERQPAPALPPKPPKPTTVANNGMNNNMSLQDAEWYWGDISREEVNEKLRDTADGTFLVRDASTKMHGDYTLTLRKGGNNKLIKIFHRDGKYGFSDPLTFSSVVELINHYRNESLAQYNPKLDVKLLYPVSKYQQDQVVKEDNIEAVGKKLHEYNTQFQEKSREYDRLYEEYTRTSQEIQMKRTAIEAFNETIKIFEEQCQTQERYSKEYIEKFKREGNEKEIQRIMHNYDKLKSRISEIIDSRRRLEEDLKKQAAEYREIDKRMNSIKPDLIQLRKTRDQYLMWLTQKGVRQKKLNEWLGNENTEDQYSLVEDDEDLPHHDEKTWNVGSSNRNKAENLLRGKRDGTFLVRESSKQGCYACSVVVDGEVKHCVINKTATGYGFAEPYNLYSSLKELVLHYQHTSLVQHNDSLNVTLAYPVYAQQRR

pIC50 | SMILES
> 7.00 | Cc1ccc(-c2ccc3ncc4nnn(C5CCN(C(=O)[C@H](C)O)CC5)c4c3n2)cn1 [Compound 2]
> 7.00 | Cc1cc(-c2ccc3ncc4nnn(C5CCN(C(=O)[C@H](C)O)CC5)c4c3n2)cnc1N [Compound 3]
> 7.00 | COc1ccc(-c2ccc3ncc4nnn(C5CCN(C(=O)[C@H](C)O)CC5)c4c3n2)cn1 [Compound 5]
> 7.00 | C[C@H](O)C(=O)N1CCC(n2nnc3cnc4ccc(-c5cnc6[nH]ccc6c5)nc4c32)CC1 [Compound 8]
> 7.00 | Nc1ncc(-c2ccc3ncc4nnn(C5CCN(C(=O)C6CC6)CC5)c4c3n2)cc1F [Compound 11]
> 7.00 | Nc1ncc(-c2ccc3ncc4nnn(-c5cccc(Cl)c5)c4c3c2)cn1 [Compound 13]
> 7.00 | CC(=O)N1CCC(n2nnc3cnc4ccc(-c5cnc(N)c(C(F)(F)F)c5)cc4c32)CC1 [Compound 15]
> 7.00 | CC(C)(C#N)c1ccc(-n2nnc3cnc4ccc(-c5cnc(N)nc5)nc4c32)cc1 [Compound 18]
> 7.00 | Nc1ncc(-c2ccc3ncc4nnn(C5CCN(CC6CC6)CC5)c4c3n2)cc1C(F)(F)F [Compound 20]
> 7.00 | Cc1cc(-c2ccc3ncc4nnn(C5CCN(C(=O)[C@@H](C)O)CC5)c4c3n2)cnc1N [Compound 22]
> 7.00 | C[C@H](O)C(=O)N1CCC(n2nnc3cnc4ccc(-c5cnc(N)c(C(F)(F)F)c5)cc4c32)CC1 [Compound 23]
> 7.00 | C[C@@H](O)C(=O)N1CCC(n2nnc3cnc4ccc(-c5cnc(N)c(C(F)(F)F)c5)cc4c32)CC1 [Compound 24]
> 7.00 | C=CC(=O)N1CCC(n2nnc3cnc4ccc(-c5cnc(N)c(C(F)(F)F)c5)nc4c32)CC1 [Compound 28]
> 7.00 | C=CC(=O)N1CCC(n2nnc3cnc4ccc(-c5cnc(N)c(C)c5)nc4c32)CC1 [Compound 29]
> 7.00 | CC(C)C(=O)N1CCC(n2nnc3cnc4ccc(-c5cnc(N)c(F)c5)nc4c32)CC1 [Compound 31]
> 7.00 | CN1CCC(C(=O)N2CCC(n3nnc4cnc5ccc(-c6cnc(N)c(C(F)(F)F)c6)nc5c43)CC2)CC1 [Compound 36]
> 7.00 | CCCCC(=O)N1CCC(n2nnc3cnc4ccc(-c5cnc(N)c(C(F)(F)F)c5)nc4c32)CC1 [Compound 37]
> 7.00 | Nc1ncc(-c2ccc3ncc4nnn(C5CCN(C(=O)CC6CC6)CC5)c4c3n2)cc1C(F)(F)F [Compound 38]
> 7.00 | Nc1ncc(-c2ccc3ncc4nnn(C5CCN(C(=O)C6(O)CC6)CC5)c4c3n2)cc1C(F)(F)F [Compound 39]
> 7.00 | Nc1ncc(-c2ccc3ncc4nnn(C5CCN(C(=O)c6ccccn6)CC5)c4c3n2)cc1C(F)(F)F [Compound 40]
> 7.00 | Nc1ncc(-c2ccc3ncc4nnn(C5CCN(C(=O)c6ccccc6)CC5)c4c3n2)cc1C(F)(F)F [Compound 41]
> 7.00 | Nc1ncc(-c2ccc3ncc4nnn(C5CCN(Cc6ccccn6)CC5)c4c3n2)cc1C(F)(F)F [Compound 47]

pIC50 | SMILES
> 7.00 | Nc1ncc(-c2ccc3ncc4nnn(C5CCN(CC6CCOCC6)CC5)c4c3n2)cc1C(F)(F)F [Compound 48, 5-(1-(1-((tetrahydro-2H-pyran-4-yl)methyl)piperidin-4-yl)-1H-[1,2,3]triazolo[4,5-c][1,5]naphthyridin-8-yl)-3-(trifluoromethyl)pyridin-2-amine]
> 7.00 | CC(C)(C#N)c1ccc(-c2nnc3cnc4ccc(-c5cnc(N)c(C(F)(F)F)c5)cc4n23)cn1 [Compound 54]
> 7.00 | Cc1cc(-c2ccc3ncc4nnc(-c5ccc(C(C)(C)C#N)nc5)n4c3c2)cnc1N [Compound 57]
> 7.00 | Nc1ncc(-c2ccc3ncc4nnc(-c5ccc(F)cn5)n4c3c2)cc1C(F)(F)F [Compound 59]
> 7.00 | Nc1nc2ccc(-c3ccc4ncc5nnc(-c6ccc(F)cn6)n5c4c3)cc2s1 [Compound 60]
> 7.00 | CC(C)(C#N)c1ccc(-c2nnc3cnc4ccc(-c5ccc6[nH]ncc6c5)cc4n23)cc1 [Compound 61]
> 7.00 | N#Cc1cccc(-c2nnc3cnc4ccc(-c5cnc(N)c(C(F)(F)F)c5)cc4n23)c1 [Compound 62]
> 7.00 | N#Cc1ccc(-c2nnc3cnc4ccc(-c5cnc(N)c(C(F)(F)F)c5)cc4n23)cc1 [Compound 64]
> 7.00 | Cc1ccc(-c2nnc3cnc4ccc(-c5cnc(N)c(C(F)(F)F)c5)cc4n23)cn1 [Compound 65]
> 7.00 | CC(C)(C#N)c1ccc(-c2nnc3cnc4ccc(-c5ccc6nc(N)oc6c5)cc4n23)cn1 [Compound 67]
> 7.00 | CC(C)(C#N)C(=O)c1ccc(-c2nnc3cnc4ccc(-c5cnc(N)c(C(F)(F)F)c5)cc4n23)cc1 [Compound 68]
> 7.00 | CC(C)(C#N)c1ccc(-c2nnc3cnc4ccc(-c5cnc6[nH]ccc6c5)cc4n23)cc1 [Compound 69]
> 7.00 | Nc1ncc(-c2ccc3ncc4nnc(-c5ccc(F)cc5)n4c3c2)cc1C(F)(F)F [Compound 70]
> 7.00 | CS(=O)(=O)c1ccc(-c2nnc3cnc4ccc(-c5cnc(N)c(C(F)(F)F)c5)cc4n23)cc1 [Compound 71]
> 7.00 | N#Cc1ccc(-c2nnc3cnc4ccc(-c5ccc6nc(N)sc6c5)cc4n23)nc1 [Compound 73]
> 7.00 | COc1ncc(-c2ccc3ncc4nnc(-c5ccc(C(C)(C)C#N)cc5)n4c3c2)cc1N [Compound 74]
> 7.00 | COc1cc(-c2ccc3ncc4nnc(-c5ccc(C(C)(C)C#N)cc5)n4c3c2)cnc1OC [Compound 76]
> 7.00 | CC(C)(C#N)c1ccc(-c2nnc3cnc4ccc(-c5cnc(N)c(Cl)c5)cc4n23)cc1 [Compound 77]
> 7.00 | C[C@H](O)C(=O)N1CCC(c2nnc3cnc4ccc(-c5cnc(N)c(C(F)(F)F)c5)cc4n23)CC1 [Compound 79, (S)-1-(4-(8-(6-amino-5-(trifluoromethyl)pyridin-3-yl)-[1,2,4]triazolo[4,3-a]quinoxalin-1-yl)piperidin-1-yl)-2-hydroxypropan-1-one]
> 7.00 | C[C@H](O)C(=O)N1CCC(c2nnc3cnc4ccc(-c5ccc6nc(N)sc6c5)cc4n23)CC1 [Compound 80]
> 7.00 | C[C@@H](O)C(=O)N1CCC(c2nnc3cnc4ccc(-c5ccc6nc(N)sc6c5)cc4n23)CC1 [Compound 81]
> 7.00 | CC(=O)N1CCC(Cc2nnc3cnc4ccc(-c5cnc(N)c(C(F)(F)F)c5)cc4n23)CC1 [Compound 82]

pIC50 | SMILES
> 7.00 | CC(=O)N1CCC(Cc2nnc3cnc4ccc(-c5ccc6nc(N)sc6c5)cc4n23)CC1 [Compound 83]
> 7.00 | CC(=O)N1CCCC(c2nnc3cnc4ccc(-c5ccc6nc(N)sc6c5)cc4n23)C1 (stereo not shown) [Compound 84]
> 7.00 | Nc1ncc(-c2ccc3ncc4nnc(C5CCC(O)CC5)n4c3c2)cc1C(F)(F)F (stereo not shown) [Compound 85]
> 7.00 | Nc1ncc(-c2ccc3ncc4nnc(CN5CCCC5)n4c3c2)cc1C(F)(F)F [Compound 87]
> 7.00 | CC(C)(C#N)c1ccc(-n2cnc3cnc4ccc(-c5cnc(N)c(C(F)(F)F)c5)nc4c32)cn1 [Compound 89]
> 7.00 | Cc1cc(-c2ccc3ncc4ncn(-c5ccc(C(C)(C)C#N)nc5)c4c3n2)cnc1N [Compound 90]
> 7.00 | COc1cc(-c2ccc3ncc4ncn(-c5ccc(C(C)(C)C#N)nc5)c4c3n2)cnc1OC [Compound 92]
> 7.00 | CC(C)(C#N)c1ccc(-n2cnc3cnc4ccc(-c5cnc(N)nc5)nc4c32)cn1 [Compound 94]
> 7.00 | COc1cc(-c2ccc3ncc4ncn(-c5ccc(C(C)(C)C#N)nc5)c4c3n2)cnc1N [Compound 95]
> 7.00 | Nc1ncc(-c2ccc3ncc4ncn(C5CCN(CC(=O)N6CCOCC6)CC5)c4c3n2)cc1C(F)(F)F [Compound 97]
> 7.00 | COc1cc(-c2ccc3ncc4ncn(C5CCN(CC(=O)N(C)C)CC5)c4c3n2)cnc1OC [Compound 99]
> 7.00 | Cc1ccc(-c2ccc3ncc4ncn(C5CCN(CC(=O)N(C)C)CC5)c4c3n2)cn1 [Compound 100]
> 7.00 | CCNC(=O)N1CCC(n2cnc3cnc4ccc(-c5cnc(N)c(C(F)(F)F)c5)nc4c32)CC1 [Compound 101]
> 7.00 | CC(C)(C#N)c1ccc(-n2cnc3cnc4ccc(-c5cnc(N)c(C(F)(F)F)c5)nc4c32)cc1 [Compound 104]
> 7.00 | CCOc1cc(-c2ccc3ncc4ncn(-c5ccc(C(C)(C)C#N)nc5)c4c3n2)cnc1N [Compound 108]
> 7.00 | Nc1ncc(-c2ccc3ncc4ncn(CCN5CCOCC5)c4c3n2)cc1C(F)(F)F [Compound 109]
> 7.00 | C[C@@H](O)C(=O)N1CCC(n2cnc3cnc4ccc(-c5cnc(N)c(C(F)(F)F)c5)nc4c32)CC1 [Compound 110]
> 7.00 | Nc1ncc(-c2ccc3ncc4ncn(CCN5CCCC5)c4c3n2)cc1C(F)(F)F [Compound 111]
> 7.00 | C#Cc1cc(-c2ccc3ncc4ncn(C5CCN(C(=O)C6CC6)CC5)c4c3n2)cnc1N [Compound 112]
> 7.00 | Cc1ccc(-c2ccc3ncc4ncn(C5CCN(C(=O)[C@H](C)O)CC5)c4c3n2)cn1 [Compound 113]
